Source: PubChem BioAssay (NCI)
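Compound exposure: 48 hours, 5 concentrations, 96-well plates. Here, GI50 denotes the concentration required for 50% inhibition of growth. TGI denotes the concentration required for complete inhibition of growth.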

Legend:
Experiment in all cases: growth of human tumour cells (NCI), 48 h
[1] = tested on: SK-OV-3 ovarian
[2] = tested on: NCI-H226 lung
[3] = tested on: MOLT-4 leukemia
[4] = tested on: COLO 205 colon
[5] = tested on: DU-145 prostate
[6] = tested on: HCC-2998 colon
[7] = tested on: SN12C renal
[8] = tested on: SK-MEL-2 melanoma
[9] = tested on: SNB-19 CNS
[10] = tested on: MCF7 breast
[11] = tested on: HCT-116 colon
[12] = tested on: UACC-62 melanoma
[13] = tested on: OVCAR-5 ovarian
[14] = tested on: HCT-15 colon
[15] = tested on: 786-0 renal
[16] = tested on: ACHN renal
[17] = tested on: NCI/ADR-RES ovarian
[18] = tested on: OVCAR-8 ovarian
[19] = tested on: NCI-H522 lung
[20] = tested on: SF-295 CNS
[21] = tested on: SW-620 colon
[22] = tested on: MALME-3M melanoma
[23] = tested on: NCI-H23 lung
[24] = tested on: LOX IMVI melanoma
[25] = tested on: TK-10 renal
[26] = tested on: A549 NSCLC
[27] = tested on: SK-MEL-5 melanoma
[28] = tested on: A498 renal
[29] = tested on: RXF 393 renal
[30] = tested on: IGROV1 ovarian
[31] = tested on: CAKI-1 renal
[32] = tested on: BT-549 breast
[33] = tested on: T-47D breast
[34] = tested on: SF-268 CNS
[35] = tested on: HL-60(TB) leukemia
[36] = tested on: HS 578T breast
[37] = tested on: U251 CNS
[38] = tested on: SNB-75 CNS
[39] = tested on: OVCAR-3 ovarian
[40] = tested on: KM12 colon
[41] = tested on: HOP-92 NSCLC
[42] = tested on: MDA-MB-468 breast
[43] = tested on: M14 melanoma
[44] = tested on: SF-539 CNS
[45] = tested on: EKVX NSCLC
[46] = tested on: OVCAR-4 ovarian
[47] = tested on: UO-31 renal
[48] = tested on: SK-MEL-28 melanoma
[49] = tested on: MDA-MB-435
[50] = tested on: PC-3 prostate
[51] = tested on: HOP-62 NSCLC
[52] = tested on: CCRF-CEM leukemia
[53] = tested on: RPMI-8226 leukemia
[54] = tested on: UACC-257 melanoma
[55] = tested on: MDA-MB-231 breast

Structure (SMILES): COc1ccc(-c2nc3cc(C)ccc3n2CC(=O)N=Nc2c(O)[nH]c3ccc(OC)cc23)cc1
- GI50 [1]: 4.32 µM
- TGI [1]: 15.6 µM
- GI50 [2]: 2 µM
- TGI [2]: 4.31 µM
- GI50 [3]: 2.65 µM
- TGI [3]: 8.57 µM
- GI50 [4]: 2.62 µM
- TGI [4]: 7.93 µM
- GI50 [5]: 3.54 µM
- TGI [5]: 14.7 µM
- GI50 [6]: 3.66 µM
- TGI [6]: 13.2 µM
- GI50 [7]: 1.8 µM
- TGI [7]: 4.08 µM
- GI50 [8]: 5.39 µM
- TGI [8]: 19.7 µM
- GI50 [9]: 4.3 µM
- TGI [9]: 16.1 µM
- GI50 [10]: 2.01 µM
- TGI [10]: 4.96 µM
- GI50 [11]: 1.74 µM
- TGI [11]: 3.27 µM
- GI50 [12]: 1.84 µM
- TGI [12]: 5.05 µM
- GI50 [13]: 2.43 µM
- TGI [13]: 8.93 µM
- GI50 [14]: 2.56 µM
- TGI [14]: 7.51 µM
- GI50 [15]: 3.37 µM
- TGI [15]: 11.7 µM
- GI50 [16]: 2.35 µM
- TGI [16]: 6.23 µM
- GI50 [17]: 2.34 µM
- TGI [17]: 5.52 µM
- GI50 [18]: 2.3 µM
- TGI [18]: 5.89 µM
- GI50 [19]: 3.71 µM
- TGI [19]: 15.3 µM
- GI50 [20]: 3.59 µM
- TGI [20]: 13.7 µM
- GI50 [21]: 2.11 µM
- TGI [21]: 5.1 µM
- GI50 [22]: 1.94 µM
- TGI [22]: 3.52 µM
- GI50 [23]: 2.48 µM
- TGI [23]: 6.88 µM
- GI50 [24]: 2.27 µM
- TGI [24]: 5.81 µM
- GI50 [25]: 3.13 µM
- TGI [25]: 11.9 µM
- GI50 [26]: 1.99 µM
- TGI [26]: 4.43 µM
- GI50 [27]: 1.64 µM
- TGI [27]: 3.16 µM
- GI50 [28]: 11.2 µM
- TGI [28]: 24.6 µM
- GI50 [29]: 1.48 µM
- TGI [29]: 3.27 µM
- GI50 [30]: 6.83 µM
- TGI [30]: 19.8 µM
- GI50 [31]: 1.93 µM
- TGI [31]: 5.45 µM
- GI50 [32]: 1.88 µM
- TGI [32]: 4.01 µM
- GI50 [33]: 2.43 µM
- TGI [33]: 6.5 µM
- GI50 [34]: 2.43 µM
- TGI [34]: 8.3 µM
- GI50 [35]: 1.72 µM
- TGI [35]: 5.22 µM
- GI50 [36]: 2.02 µM
- TGI [36]: 5.15 µM
- GI50 [37]: 2.09 µM
- TGI [37]: 4.24 µM
- GI50 [38]: 1.49 µM
- TGI [38]: 3.35 µM
- GI50 [39]: 1.87 µM
- TGI [39]: 4.39 µM
- GI50 [40]: 1.85 µM
- TGI [40]: 3.72 µM
- GI50 [41]: 1.83 µM
- TGI [41]: 4.07 µM
- GI50 [42]: 2.05 µM
- TGI [42]: 4.41 µM
- GI50 [43]: 1.8 µM
- TGI [43]: 3.38 µM
- GI50 [44]: 1.62 µM
- TGI [44]: 3 µM
- GI50 [45]: 3.28 µM
- TGI [45]: 12.5 µM
- GI50 [46]: 1.84 µM
- TGI [46]: 3.79 µM
- GI50 [47]: 11.2 µM
- TGI [47]: 23.6 µM
- GI50 [48]: 1.73 µM
- TGI [48]: 3.19 µM
- GI50 [49]: 1.88 µM
- TGI [49]: 3.76 µM
- GI50 [50]: 2.3 µM
- TGI [50]: 6.65 µM
- GI50 [51]: 2.52 µM
- TGI [51]: 6.96 µM
- GI50 [52]: 3.6 µM
- TGI [52]: 13.3 µM
- GI50 [53]: 3.22 µM
- TGI [53]: 14.9 µM
- GI50 [54]: 2.38 µM
- TGI [54]: 6.02 µM
- GI50 [55]: 2.04 µM
- TGI [55]: 4.68 µM
